# Read-outs that look alike come from different tables or passages of the source.
# Assays:
# Type in all cases: cell-based
# [1] = system: H. influenzae ATCC 49247; experiment: MIC determination, broth microdilution (CLSI); conditions: Haemophilus influenzae, ATCC49247, strain 12; broth microdilution; read-out: MIC strain 12 (H. influenzae ATCC 49247)
# [2] = system: Bacteria; experiment: MIC determination in combination with β-lactamase inhibitors (constant 4 μg/mL)
# [3] = system: B. fragilis 6688; experiment: MIC determination, broth microdilution (CLSI); conditions: Bacteroides fragilis, 6688, strain 15; broth microdilution; read-out: MIC strain 15 (B. fragilis 6688)
# [4] = system: K. pneumoniae 60; experiment: MIC determination, broth microdilution (CLSI); conditions: Klebsiella pneumoniae, 60, strain 2
# [5] = system: S. aureus 133; experiment: MIC determination, broth microdilution (CLSI)
# [6] = system: E. coli ATCC25922; experiment: MIC determination, broth microdilution (CLSI); conditions: Escherichia coli, ATCC25922, strain 1
# [7] = system: E. cloacae 34654; experiment: MIC determination, broth microdilution (CLSI); conditions: Enterobacter cloacae, 34654, strain 3
# [8] = system: M. morganii 126/3048; experiment: MIC determination, broth microdilution (CLSI); conditions: Morganella morganii, 126/3048, strain 5
# [9] = system: E. coli J62; experiment: MIC determination, broth microdilution (CLSI); conditions: Escherichia coli, J62, strain 17; broth microdilution; read-out: MIC strain 17 (E. coli J62)
# [10] = system: A. baumannii ATCC15308; experiment: MIC determination, broth microdilution (CLSI); conditions: Acinetobacter baumannii, ATCC15308, strain 9
# [11] = system: S. pneumoniae 113; experiment: MIC determination, broth microdilution (CLSI); conditions: Streptococcus pneumoniae, 113, strain 13; broth microdilution; read-out: MIC strain 13 (S. pneumoniae 113)
# [12] = system: C. freundii K21/3034; experiment: MIC determination, broth microdilution (CLSI); conditions: Citrobacter freundii, K21/3034, strain 4
# [13] = system: P. aeruginosa 2297 (AmpC wt); experiment: MIC determination, broth microdilution (CLSI); conditions: Pseudomonas aeruginosa, strain 7
# [14] = system: P. aeruginosa PAO1; experiment: MIC determination, broth microdilution (CLSI); conditions: Pseudomonas aeruginosa, PAO1, strain 6
# [15] = system: P. aeruginosa 2297-con (AmpC derepressed); experiment: MIC determination, broth microdilution (CLSI); conditions: Pseudomonas aeruginosa, read-out: strain 8 MIC, strain 8
# [16] = system: E. coli J62-TEM-3; experiment: MIC determination, broth microdilution (CLSI); conditions: Escherichia coli, J62TEM3, read-out: MIC strain 18 (E. coli J62-TEM-3), strain 18; broth microdilution
# [17] = Staphylococcus aureus, 133, strain 11, read-out: strain 11 MIC
# [18] = Staphylococcus aureus, 133, strain 14, broth microdilution, read-out: MIC strain 14 (S. aureus 133)
SMILES,MIC [1],MIC strain 19 (E. coli J62-TEM-3 + 4 μg/mL clavulanic acid) [2],MIC strain 20 (E. coli J62-TEM-3 + 4 μg/mL sulbactam) [2],MIC strain 21 (E. coli J62-TEM-3 + 4 μg/mL tazobactam) [2],MIC [3],MIC [4],"MIC [5, 17]","MIC [5, 18]",MIC [6],MIC [7],MIC [8],MIC [9],MIC [10],MIC [11],MIC [12],MIC [13],MIC [14],MIC [15],MIC [16]
"C[C@@H]1[C@H](NC(=O)/C(=N\OCCCOc2ccc(C(=N)N)cc2)c2csc(N)n2)C(=O)N1S(=O)(=O)O [Example 48, (2R,3S)-3-{[(2Z)-2-(2-Amino-1,3-thiazol-4-yl)-2-{[3-(4-carbamimidoylphenoxy)propoxy]imino}acetyl]amino}-2-methyl-4-oxoazetidine-1-sulfonic acid]",0.5 µg/mL,2 µg/mL,2 µg/mL,2 µg/mL,16 µg/mL,4 µg/mL,0.5 µg/mL,4 µg/mL,2 µg/mL,4 µg/mL,1 µg/mL,2 µg/mL,8 µg/mL,1 µg/mL,2 µg/mL,16 µg/mL,8 µg/mL,32 µg/mL,
"C[C@H]1[C@H](NC(=O)/C(=N\OCCOc2ccc(C(=N)N)cc2Br)c2csc(N)n2)C(=O)N1S(=O)(=O)O [Example 49, (2S,3S)-3-{[(2Z)-2-(2-Amino-1,3-thiazol-4-yl)-2-{[2-(2-bromo-4-carbamimidoyl-phenoxy)ethoxy]imino}acetyl]amino}-2-methyl-4-oxoazetidine-1-sulfonic acid]",0.5 µg/mL,2 µg/mL,2 µg/mL,2 µg/mL,16 µg/mL,2 µg/mL,0.125 µg/mL,16 µg/mL,1 µg/mL,2 µg/mL,2 µg/mL,2 µg/mL,4 µg/mL,0.5 µg/mL,1 µg/mL,16 µg/mL,8 µg/mL,32 µg/mL,
"C[C@H]1[C@H](NC(=O)/C(=N\OCCOc2ccc(NC(=N)N)cc2)c2csc(N)n2)C(=O)N1S(=O)(=O)O [Example 50, (2S,3S)-3-{[(2Z)-2-(2-Amino-1,3-thiazol-4-yl)-2-{[2-(4-carbamimidamidophenoxy)ethoxy]imino}acetyl]amino}-2-methyl-4-oxoazetidine-1-sulfonic acid]",0.25 µg/mL,1 µg/mL,1 µg/mL,1 µg/mL,16 µg/mL,0.5 µg/mL,0.125 µg/mL,8 µg/mL,0.5 µg/mL,1 µg/mL,0.5 µg/mL,1 µg/mL,2 µg/mL,1 µg/mL,1 µg/mL,16 µg/mL,8 µg/mL,32 µg/mL,
"C[C@H]1[C@H](NC(=O)/C(=N\OCCCOc2ccc(NC(=N)N)cc2)c2csc(N)n2)C(=O)N1S(=O)(=O)O [Example 51, (2S,3S)-3-{[(2Z)-2-(2-Amino-1,3-thiazol-4-yl)-2-{[3-(4-carbamimidamidophenoxy)propoxy]imino}acetyl]amino}-2-methyl-4-oxoazetidine-1-sulfonic acid]",0.5 µg/mL,4 µg/mL,4 µg/mL,4 µg/mL,16 µg/mL,4 µg/mL,0.5 µg/mL,8 µg/mL,2 µg/mL,2 µg/mL,2 µg/mL,4 µg/mL,4 µg/mL,1 µg/mL,2 µg/mL,16 µg/mL,16 µg/mL,32 µg/mL,
C[C@H]1[C@H](NC(=O)/C(=N\OCCOc2ccc(C(=N)N)cc2)c2nsc(N)n2)C(=O)N1S(=O)(=O)O [Example 52],8 µg/mL,2 µg/mL,2 µg/mL,2 µg/mL,32 µg/mL,0.5 µg/mL,2 µg/mL,8 µg/mL,1 µg/mL,1 µg/mL,1 µg/mL,2 µg/mL,1 µg/mL,16 µg/mL,0.25 µg/mL,4 µg/mL,4 µg/mL,16 µg/mL,
"C[C@H]1[C@H](NC(=O)/C(=N\OCCOc2ccc(C(=N)N)cc2CO)c2csc(N)n2)C(=O)N1S(=O)(=O)O [Example 59, (2S,3S)-3-{[(2Z)-2-(2-Amino-1,3-thiazol-4-yl)-2-({2-[4-carbamimidoyl-2-(hydroxymethyl)phenoxy]ethoxy}imino)acetyl]amino}-2-methyl-4-oxoazetidine-1-sulfonic acid]",1 µg/mL,2 µg/mL,2 µg/mL,2 µg/mL,16 µg/mL,1 µg/mL,0.25 µg/mL,32 µg/mL,1 µg/mL,1 µg/mL,1 µg/mL,2 µg/mL,1 µg/mL,0.5 µg/mL,0.5 µg/mL,16 µg/mL,16 µg/mL,32 µg/mL,32 µg/mL
"C[C@H]1[C@H](NC(=O)/C(=N\OCCOc2ccc(C(=N)N)cc2COC=O)c2csc(N)n2)C(=O)N1S(=O)(=O)O [Example 60, (2S,3S)-3-({(2Z)-2-(2-Amino-1,3-thiazol-4-yl)-2-[(2-{4-carbamimidoyl-2-[(formyloxy)-methyl]phenoxy}ethoxy)imino]acetyl}amino)-2-methyl-4-oxoazetidine-1-sulfonic acid]",1 µg/mL,2 µg/mL,2 µg/mL,2 µg/mL,16 µg/mL,1 µg/mL,0.25 µg/mL,16 µg/mL,1 µg/mL,2 µg/mL,0.5 µg/mL,2 µg/mL,4 µg/mL,1 µg/mL,1 µg/mL,16 µg/mL,16 µg/mL,32 µg/mL,32 µg/mL
"C[C@H]1[C@H](NC(=O)/C(=N\OCCOc2ccc(CC(=N)N)cc2)c2csc(N)n2)C(=O)N1S(=O)(=O)O [Example 62, (2S,3S)-3-{[(2Z)-2-({2-[4-(2-Amino-2-iminoethyl)phenoxy]ethoxy}imino)-2-(2-amino-1,3-thiazol-4-yl)acetyl]amino}-2-methyl-4-oxoazetidine-1-sulfonic acid]",0.25 µg/mL,1 µg/mL,1 µg/mL,1 µg/mL,16 µg/mL,0.5 µg/mL,0.125 µg/mL,8 µg/mL,1 µg/mL,1 µg/mL,0.125 µg/mL,1 µg/mL,2 µg/mL,1 µg/mL,0.5 µg/mL,8 µg/mL,4 µg/mL,32 µg/mL,16 µg/mL
"CNC(=N)c1ccc(OCCO/N=C(\C(=O)N[C@@H]2C(=O)N(S(=O)(=O)O)[C@H]2C)c2csc(N)n2)cc1 [Example 68, (2S,3S)-3-{[(2Z)-2-(2-Amino-1,3-thiazol-4-yl)-2-({2-[4-(N-methylcarbamimidoyl)-phenoxy]ethoxy}imino)acetyl]amino}-2-methyl-4-oxoazetidine-1-sulfonic acid]",0.125 µg/mL,0.125 µg/mL,0.25 µg/mL,0.25 µg/mL,8 µg/mL,0.25 µg/mL,≤ 0.063 µg/mL,2 µg/mL,0.125 µg/mL,0.125 µg/mL,0.125 µg/mL,0.25 µg/mL,2 µg/mL,0.5 µg/mL,0.125 µg/mL,8 µg/mL,2 µg/mL,32 µg/mL,16 µg/mL

# Reference: patent publication US9556165B2 (priority 2012, dated 2017)
